Read-outs that look alike come from different tables or passages of the source.
T1: DeUB-PEPC (in vitro deubiquitinated p107 homotetrameric PEPC of germinating sorghum seeds; CP21) (Sorghum bicolor, UniProt P29195)
T1 construct: p107 homotetramer; not phosphorylated at Ser7
T1 sequence (P29195 1-960): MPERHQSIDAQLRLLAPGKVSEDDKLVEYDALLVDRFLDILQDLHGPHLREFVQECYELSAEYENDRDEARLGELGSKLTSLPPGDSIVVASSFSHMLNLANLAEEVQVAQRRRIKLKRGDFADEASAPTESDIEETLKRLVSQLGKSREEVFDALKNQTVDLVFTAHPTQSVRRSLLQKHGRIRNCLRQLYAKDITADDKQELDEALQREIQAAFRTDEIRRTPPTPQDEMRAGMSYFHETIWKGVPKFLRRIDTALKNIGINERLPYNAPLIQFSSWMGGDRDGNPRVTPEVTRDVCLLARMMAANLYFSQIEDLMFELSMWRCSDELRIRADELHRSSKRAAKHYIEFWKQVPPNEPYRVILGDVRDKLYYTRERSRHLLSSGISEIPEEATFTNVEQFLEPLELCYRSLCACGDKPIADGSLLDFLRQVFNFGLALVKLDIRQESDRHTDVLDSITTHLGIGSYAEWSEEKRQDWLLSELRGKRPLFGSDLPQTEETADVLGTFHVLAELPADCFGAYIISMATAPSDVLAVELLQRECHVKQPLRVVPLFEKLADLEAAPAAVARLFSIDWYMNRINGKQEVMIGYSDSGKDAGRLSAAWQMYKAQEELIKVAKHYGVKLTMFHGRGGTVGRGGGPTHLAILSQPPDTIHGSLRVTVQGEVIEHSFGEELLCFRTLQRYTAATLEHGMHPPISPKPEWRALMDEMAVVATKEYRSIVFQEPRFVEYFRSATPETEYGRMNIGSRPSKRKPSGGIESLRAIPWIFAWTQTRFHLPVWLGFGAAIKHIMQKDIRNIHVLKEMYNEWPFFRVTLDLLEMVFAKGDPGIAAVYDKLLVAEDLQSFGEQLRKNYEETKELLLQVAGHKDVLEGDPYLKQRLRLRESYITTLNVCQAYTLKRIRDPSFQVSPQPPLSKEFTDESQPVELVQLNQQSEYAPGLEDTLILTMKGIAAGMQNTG

T2: UB-PEPC (purified monoubiquitinated p110:p107 heterotetrameric PEPC of germinating sorghum seeds; CP21) (Sorghum bicolor, UniProt P29195)
T2 construct: native, purified from 48 h germinated seeds, untagged; intact N-terminus, not phosphorylated at Ser7; heterotetramer ~460 kDa of p110 and p107 in equivalent ratio; p110 = p107 monoubiquitinated at Lys624
T2 sequence (P29195 1-960): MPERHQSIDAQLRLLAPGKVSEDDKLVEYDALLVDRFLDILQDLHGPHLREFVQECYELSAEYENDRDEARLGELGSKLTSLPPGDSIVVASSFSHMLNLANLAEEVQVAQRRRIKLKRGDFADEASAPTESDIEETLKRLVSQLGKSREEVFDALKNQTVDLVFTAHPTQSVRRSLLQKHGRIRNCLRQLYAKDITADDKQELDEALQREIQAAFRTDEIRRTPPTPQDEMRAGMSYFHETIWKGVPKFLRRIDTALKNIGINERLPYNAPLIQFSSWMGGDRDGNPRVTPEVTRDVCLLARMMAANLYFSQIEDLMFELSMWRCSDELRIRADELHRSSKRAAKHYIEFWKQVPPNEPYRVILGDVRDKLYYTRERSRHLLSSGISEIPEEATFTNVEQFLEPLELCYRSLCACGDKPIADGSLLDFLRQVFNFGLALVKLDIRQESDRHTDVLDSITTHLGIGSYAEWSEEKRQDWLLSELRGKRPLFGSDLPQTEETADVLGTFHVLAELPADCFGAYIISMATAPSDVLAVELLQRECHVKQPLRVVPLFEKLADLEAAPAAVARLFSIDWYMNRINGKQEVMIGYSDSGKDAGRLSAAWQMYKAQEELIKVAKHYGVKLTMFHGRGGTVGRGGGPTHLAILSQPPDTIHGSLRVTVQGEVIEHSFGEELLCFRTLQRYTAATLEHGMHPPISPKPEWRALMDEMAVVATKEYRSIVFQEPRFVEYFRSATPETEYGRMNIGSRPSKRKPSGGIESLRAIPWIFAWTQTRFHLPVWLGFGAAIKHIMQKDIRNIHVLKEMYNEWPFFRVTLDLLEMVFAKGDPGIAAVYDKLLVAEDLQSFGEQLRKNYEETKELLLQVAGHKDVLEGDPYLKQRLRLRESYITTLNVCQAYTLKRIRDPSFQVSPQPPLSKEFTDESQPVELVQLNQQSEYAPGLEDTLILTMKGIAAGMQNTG


Tests used:
[1] = biological target: T1, DeUB-PEPC (in vitro deubiquitinated p107 homotetrameric PEPC of germinating sorghum seeds; CP21); test: biochemical; set-up: PEPC activity with 2 mM metabolite at subsaturating 0.1 mM PEP, as per cent of control; conditions: pH 8.0, 0.1 mM PEP; for remaining activity at 2000 µM: read-out: % of control remaining
Method: (§1) The impact of various metabolite effectors (2mM each) on the activity of the purified, monoubiquitinated heterotetrameric sorghum seed PEPC (UB-PEPC) versus the in vitro deubiquitinated homotetrameric enzyme (deUB-PEPC) was assessed using suboptimal assay conditions (0.1mM PEP, pH 7.3 and 8.0). With the exception of L-malate, monoubiquitination of germinating sorghum seed PEPC (CP21) exerted little to no influence in the response to the metabolites tested (Supplementary Table S2 at JXB online). […] In addition, the K m(PEP) value of UB-PEPC appeared to be slightly higher than that of deUB-PEPC, although the differences were not statistically significant (Table 1). Similarly, monoubiquitination of COS and harsh hakea Class-1 PEPCs is inhibitory, as it enhances sensitivity to allosteric inhibitors such as L-malate and L-aspartate, while interfering with the enzyme’s ability to bind PEP ([Uhrig et al., 2008]; [Shane et al., 2013]). Apparent K m and IC50 (concentration of inhibitor producing 50% inhibition) values were calculated using a computer kinetics program as previously described ([Tripodi et al., 2005]). All kinetic parameters are the means of three independent experiments and are reproducible to within ±15% (SE) of the mean value. Stock solutions of metabolites were made equimolar with MgCl2 and adjusted to pH 7.5.

[2] = biological target: T2, UB-PEPC (purified monoubiquitinated p110:p107 heterotetrameric PEPC of germinating sorghum seeds; CP21); test: biochemical; set-up: PEPC activity with 2 mM metabolite at subsaturating 0.1 mM PEP, as per cent of control; conditions: pH 8.0, 0.1 mM PEP; read-out: % of control remaining
Method: as §1

[3] = biological target: T1, DeUB-PEPC (in vitro deubiquitinated p107 homotetrameric PEPC of germinating sorghum seeds; CP21); test: biochemical; set-up: PEPC activity of purified enzyme with 2 mM metabolite effector at subsaturating 0.1 mM PEP, relative to control; conditions: pH 7.3, 0.1 mM PEP; for remaining activity at 2000 µM: read-out: % of control remaining
Method: as §1

[4] = biological target: T2, UB-PEPC (purified monoubiquitinated p110:p107 heterotetrameric PEPC of germinating sorghum seeds; CP21); test: biochemical; set-up: PEPC activity of purified enzyme with 2 mM metabolite effector at subsaturating 0.1 mM PEP, relative to control; conditions: pH 7.3, 0.1 mM PEP; read-out: % of control remaining
Method: as §1

[5] = biological target: T1, DeUB-PEPC (in vitro deubiquitinated p107 homotetrameric PEPC of germinating sorghum seeds; CP21); test: spectrophotometric, NADH at […] nm, coupled with malate dehydrogenase; type: biochemical; conditions: read-out: pH 7.3 / DeUB-PEPC
[6] = biological target: p107, non-ubiquitinated 107 kDa plant-type PEPC (PTPC) subunit encoded by sorghum CP21 (Sorghum bicolor (endogenous in germinated seeds)) (UniProt P29195); test: SEC; Superdex-200 HR 16/60 gel filtration FPLC (calibrated column) of native PEPC purified from 48 h germinated sorghum seeds, in buffer E (50 mM HEPES-KOH pH 8.0, 5 mM MgCl2, 1 mM DTT, 20% glycerol, 100 mM KCl, phosphatase inhibitors); fractions immunoblotted with anti-COS PTPC; native molecular mass estimated as ~460 kDa
purified protein = substrate: C=C(OP(=O)(O)O)C(=O)O; test: purified protein; type: biochemical, Sorghum bicolor; conditions: pH 8.0, 25 °C, 5 mM NaHCO3, 5 mM MgCl2, apparent Km, deubiquitinated enzyme

Row | Molecule | remaining activity at 2000 µM [1] [%] | remaining activity at 2000 µM [2] [%] | remaining activity at 2000 µM [3] [%] | remaining activity at 2000 µM [4] [%] | further results
1 | O=P(O)(O)OC[C@H]1OC(O)[C@H](O)[C@@H](O)[C@@H]1O (stereo partly shown) [Glc-6-P] | 120 | 121 | 112 | 127 | –
2 | O=C(O)C[C@H](C(=O)O)[C@@H](O)C(=O)O [isocitrate] | 38 | 38 | 47 | 47 | IC50 [5]: 1370 ± 120 µM
3 | O=C(O)CC(O)C(=O)O (stereo not shown) [Malate] | 93 | 93 | – | – | –
4 | O=C[C@H](O)[C@H](O)[C@H](O)COP(=O)(O)O [Ribose-5-P] | 105 | 105 | 98 | 98 | –
5 | O=C(O)C[C@H](O)C(=O)O [L-malate] | – | – | 67 | 53 | IC50 [5]: 3620 ± 240 µM
6 | Nc1ncnc2c1ncn2[C@@H]1O[C@H](COP(=O)(O)OP(=O)(O)OP(=O)(O)O)[C@@H](O)[C@H]1O [ATP] | – | – | – | – | % of control remaining ([1]; 2000 µM): 111%; % of control remaining ([3]; 2000 µM): 88%
7 | p110, 110 kDa plant-type PEPC (PTPC) subunit encoded by sorghum CP21, monoubiquitinated at Lys624 (from UniProt P29195 1-960) (enzyme) | – | – | – | – | stoichiometry N (subunits in the oligomer) [6]: 4
8 | N[C@@H](CC(=O)O)C(=O)O [Aspartate] | 109 | 109 | 91 | 94 | –
9 | O=P(O)(O)OC1O[C@H](CO)[C@@H](O)[C@H](O)[C@H]1O (stereo partly shown) [Glc-1-P] | 116 | 116 | 111 | 115 | –
10 | O=P(O)(O)OCC(O)CO (stereo not shown) [Glycerol-3-P] | 120 | 124 | 108 | 107 | –
11 | DeUB-PEPC (in vitro deubiquitinated p107 homotetrameric PEPC of germinating sorghum seeds; CP21) (Sorghum bicolor) (protein, p107 homotetramer; not phosphorylated at Ser7) MPERHQSIDAQLRLLAPGKVSEDDKLVEYDALLVDRFLDILQDLHGPHLREFVQECYELSAEYENDRDEARLGELGSKLTSLPPGDSIVVASSFSHMLNLANLAEEVQVAQRRRIKLKRGDFADEASAPTESDIEETLKRLVSQLGKSREEVFDALKNQTVDLVFTAHPTQSVRRSLLQKHGRIRNCLRQLYAKDITADDKQELDEALQREIQAAFRTDEIRRTPPTPQDEMRAGMSYFHETIWKGVPKFLRRIDTALKNIGINERLPYNAPLIQFSSWMGGDRDGNPRVTPEVTRDVCLLARMMAANLYFSQIEDLMFELSMWRCSDELRIRADELHRSSKRAAKHYIEFWKQVPPNEPYRVILGDVRDKLYYTRERSRHLLSSGISEIPEEATFTNVEQFLEPLELCYRSLCACGDKPIADGSLLDFLRQVFNFGLALVKLDIRQESDRHTDVLDSITTHLGIGSYAEWSEEKRQDWLLSELRGKRPLFGSDLPQTEETADVLGTFHVLAELPADCFGAYIISMATAPSDVLAVELLQRECHVKQPLRVVPLFEKLADLEAAPAAVARLFSIDWYMNRINGKQEVMIGYSDSGKDAGRLSAAWQMYKAQEELIKVAKHYGVKLTMFHGRGGTVGRGGGPTHLAILSQPPDTIHGSLRVTVQGEVIEHSFGEELLCFRTLQRYTAATLEHGMHPPISPKPEWRALMDEMAVVATKEYRSIVFQEPRFVEYFRSATPETEYGRMNIGSRPSKRKPSGGIESLRAIPWIFAWTQTRFHLPVWLGFGAAIKHIMQKDIRNIHVLKEMYNEWPFFRVTLDLLEMVFAKGDPGIAAVYDKLLVAEDLQSFGEQLRKNYEETKELLLQVAGHKDVLEGDPYLKQRLRLRESYITTLNVCQAYTLKRIRDPSFQVSPQPPLSKEFTDESQPVELVQLNQQSEYAPGLEDTLILTMKGIAAGMQNTG | – | – | – | – | Km (purified protein): 36 ± 5 µM
